From US12187773B2, “Modified GIP peptide analogues” (Antag Therapeutics ApS, priority 2018, dated 2025)
*1 amine or outer side, *2 acyl side, *3 side chain or, on linkers, in order; H or OH if unused. Where a SMILES comes first, the peptide text is derived from it. Side-chain parts run from the residue outwards. The star is where a group is joined. C16 diacid = O=C(O)CCCCCCCCCCCCCCC(=O)*; γGlu = O=C(O)[C@H](CCC(=O)[*:2])N[*:1]; AEEA = NCCOCCOCC(=O)O

Experiments:
Format in all cases: cell-based
human GIP receptor [1] = biological target: T1, human GIP receptor (Homo sapiens, UniProt P48546); assay: cAMP accumulation, agonism (DiscoveRx HitHunter cAMP XS assay); parameters: host or cells: COS-7 (transient, calcium phosphate; pCMV-Script vector); settings: for Emax: COS-7, read-out: cAMP agonism, Emax
T1 sequence (P48546 22-466): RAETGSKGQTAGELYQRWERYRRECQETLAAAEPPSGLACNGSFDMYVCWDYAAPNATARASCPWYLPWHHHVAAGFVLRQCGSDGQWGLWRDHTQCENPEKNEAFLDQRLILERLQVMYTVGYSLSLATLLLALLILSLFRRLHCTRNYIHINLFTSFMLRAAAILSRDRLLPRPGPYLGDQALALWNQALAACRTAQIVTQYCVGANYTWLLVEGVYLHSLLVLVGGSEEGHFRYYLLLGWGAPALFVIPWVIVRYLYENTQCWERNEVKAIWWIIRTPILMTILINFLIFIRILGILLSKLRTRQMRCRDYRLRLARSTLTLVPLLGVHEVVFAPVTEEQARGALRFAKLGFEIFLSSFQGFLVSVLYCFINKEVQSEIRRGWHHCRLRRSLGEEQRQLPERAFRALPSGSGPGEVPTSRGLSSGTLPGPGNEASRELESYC
How it was run: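 cAMP accumulation measured by HitHunter cAMP XS in COS-7 cells transiently expressing human GIP receptor, after 30 min in HBS with 1 mM IBMX at 37 °C. Antagonists preincubated 10 min before GIP giving 50-80% of maximum, then 20 min more; agonist mode used 30 min ligand exposure.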

human GIP receptor [2] = biological target: T1, human GIP receptor; assay: cAMP accumulation, antagonism (DiscoveRx HitHunter cAMP XS assay); parameters: host or cells: COS-7 (transient, calcium phosphate; pCMV-Script vector)
Protocol: Transient transfected COS-7 cells expressing the human GIP receptor were seeded in white 96-well plates with a density of 3.5*10^4/well. The day after, the cells were washed twice with Hepes buffered saline (HBS) buffer and incubated with HBS and 1 mM 3-isobutyl-1-methylxanthine (IBMX) for 30 min at 37° C. To test for agonistic properties, ligands were added and incubated for 30 min at 37° C. In order to test for antagonistic properties, the cells were preincubated with the antagonists for 10 min prior to the addition of the agonist and subsequent incubated for 20 additional min. The HitHunter™ cAMP XS assay (DiscoveRx) was carried out according to the manufacturer's instructions.
In order to develop a GIP receptor antagonist with improved antagonistic properties, individual amino acid substitutions were conducted on GIP(3-30)NH2 and in particular at positions: 16, 18, 30 or 3, 16, 18, 30. The obtained peptides were lipidated at position 18 directly or via a linker. Both the agonistic and antagonistic profiles of the compounds were tested in cAMP accumulation experiments done in transiently transfected COS-7 cells expressing the human GIP receptor. To investigate if these mutated analogues still retained their antagonistic properties, their ability to inhibit a GIP-mediated cAMP response corresponding to 50-80% of maximum activation was examined.

human GIP receptor [3] = biological target: T1, human GIP receptor; assay: cAMP antagonism (CisBio cAMP Dynamic 2 HTRF assay); parameters: pCMV-Script vector; settings: Table 1C, CisBio, HEK-293 cells; for IC50: cAMP antagonism, nM (IC50), agonist GIP1-42 at EC50
How it was run: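 Four-parameter fits of cAMP dose-response gave pIC50. cAMP fall was quantified by HTRF competition, ratio 665/620 nm after 60 min at room temperature, against a cAMP standard curve.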

human GIP receptor [4] = biological target: T1, human GIP receptor; assay: cAMP agonism (CisBio cAMP Dynamic 2 HTRF assay); settings: HEK293, read-out: cAMP agonism, % Efficacy, Table 1C, HEK-293 cells
Protocol: To test for agonistic properties at the GIP receptor, compounds were diluted and added to cells as described above and incubated for 30 min at 37° C. The resulting increase in intracellular cAMP was determined using the CisBio cAMP Dynamic 2 HTRF Assay Kit as described above.

[5] = cAMP antagonism, nM (IC50), Table 1B, DiscoveRx, transiently transfected COS-7 cells

SMILES	Emax (human GIP receptor [1])	IC50 (human GIP receptor [2]; [5])	cAMP antagonism, % inhib (human GIP receptor [3])	IC50 (human GIP receptor [3])	Emax (human GIP receptor [4])	cAMP agonism, Emax (human GIP receptor [1]; Table 1B, DiscoveRx, COS-7 cells)	IC50 (human GIP receptor [2]; IC50-value (GIPR antagonism), Examples 1 and 2, values of Tables 1B and 2)	cAMP antagonism, % inhib (human GIP receptor [2]; Table 1B, DiscoveRx, COS-7 cells, % inhibition of Emax)
CC[C@H](C)[C@H](NC(=O)[C@H](CO)NC(=O)[C@H](Cc1ccc(O)cc1)NC(=O)[C@H](CC(=O)O)NC(=O)[C@H](CO)NC(=O)[C@@H](NC(=O)[C@H](Cc1ccccc1)NC(=O)[C@@H](NC(=O)CNC(=O)[C@@H](N)CO)[C@@H](C)O)[C@@H](C)CC)C(=O)N[C@@H](C)C(=O)N[C@@H](CCSC)C(=O)N[C@@H](CC(=O)O)C(=O)N[C@@H](CCCNC(=N)N)C(=O)N[C@H](C(=O)N[C@@H](CCCCNC(=O)CCCCCCCCCCCCCCC(=O)O)C(=O)N[C@@H](CCC(N)=O)C(=O)N[C@@H](CCC(N)=O)C(=O)N[C@@H](CC(=O)O)C(=O)N[C@@H](Cc1ccccc1)C(=O)N[C@H](C(=O)N[C@@H](CC(N)=O)C(=O)N[C@@H](Cc1c[nH]c2ccccc12)C(=O)N[C@@H](CC(C)C)C(=O)N[C@@H](CC(C)C)C(=O)N[C@@H](C)C(=O)N[C@@H](CCC(N)=O)C(=O)N[C@@H](CCCNC(=N)N)C(=O)O)C(C)C)[C@@H](C)CC [AT259] (H-SGTFISDYSIAMDRIK(C16 diacid)QQDFVNWLLAQR-OH; N-terminus assumed)	20%	19 nM	72%	58.4 nM	9%			
CC[C@H](C)[C@H](NC(=O)[C@H](CO)NC(=O)[C@H](Cc1ccc(O)cc1)NC(=O)[C@H](CC(=O)O)NC(=O)[C@H](CO)NC(=O)[C@@H](NC(=O)[C@H](Cc1ccccc1)NC(=O)[C@@H](NC(=O)CNC(=O)CN)[C@@H](C)O)[C@@H](C)CC)C(=O)N[C@@H](C)C(=O)N[C@@H](CCSC)C(=O)N[C@@H](CC(=O)O)C(=O)N[C@@H](CCCNC(=N)N)C(=O)N[C@H](C(=O)N[C@@H](CCCCNC(=O)COCCOCCNC(=O)CC[C@H](NC(=O)CCCCCCCCCCCCCCC(=O)O)C(=O)O)C(=O)N[C@@H](CCC(N)=O)C(=O)N[C@@H](CCC(N)=O)C(=O)N[C@@H](CC(=O)O)C(=O)N[C@@H](Cc1ccccc1)C(=O)N[C@H](C(=O)N[C@@H](CC(N)=O)C(=O)N[C@@H](Cc1c[nH]c2ccccc12)C(=O)N[C@@H](CC(C)C)C(=O)N[C@@H](CC(C)C)C(=O)N[C@@H](C)C(=O)N[C@@H](CCC(N)=O)C(=O)N[C@@H](CCCNC(=N)N)C(=O)O)C(C)C)[C@@H](C)CC [AT269] (HELM PEPTIDE1{G.G.T.F.I.S.D.Y.S.I.A.M.D.R.I.K.Q.Q.D.F.V.N.W.L.L.A.Q.R}|PEPTIDE2{[O=C(O)CCCCCCCCCCCCCCC(=O)[*:2]].[gGlu].[O=C(COCCOCCN[*:1])[*:2]]}$PEPTIDE1,PEPTIDE2,16:R3-3:R2$$$V2.0; N-terminus assumed)	12%	91 nM			0%			
CC[C@H](C)[C@H](NC(=O)[C@H](CO)NC(=O)[C@H](Cc1ccc(O)cc1)NC(=O)[C@H](CC(=O)O)NC(=O)[C@H](CO)NC(=O)[C@@H](NC(=O)[C@H](Cc1ccccc1)NC(=O)[C@@H](NC(=O)CNC(=O)CN)[C@@H](C)O)[C@@H](C)CC)C(=O)N[C@@H](C)C(=O)N[C@@H](CCSC)C(=O)N[C@@H](CC(=O)O)C(=O)N[C@@H](CCCNC(=N)N)C(=O)N[C@H](C(=O)N[C@@H](CCCCNC(=O)COCCOCCNC(=O)COCCOCCNC(=O)CC[C@H](NC(=O)CCCCCCCCCCCCCCC(=O)O)C(=O)O)C(=O)N[C@@H](CCC(N)=O)C(=O)N[C@@H](CCC(N)=O)C(=O)N[C@@H](CC(=O)O)C(=O)N[C@@H](Cc1ccccc1)C(=O)N[C@H](C(=O)N[C@@H](CC(N)=O)C(=O)N[C@@H](Cc1c[nH]c2ccccc12)C(=O)N[C@@H](CC(C)C)C(=O)N[C@@H](CC(C)C)C(=O)N[C@@H](C)C(=O)N[C@@H](CCC(N)=O)C(=O)N[C@@H](CCCNC(=N)N)C(=O)O)C(C)C)[C@@H](C)CC [AT275] (H-GGTFISDYSIAMDRIK([AEEA-AEEA-γGlu-C16 diacid])QQDFVNWLLAQR-OH; N-terminus assumed)	5%	43 nM	66%	126 nM	5%			
CC[C@H](C)[C@H](NC(=O)[C@H](CO)NC(=O)[C@H](Cc1ccc(O)cc1)NC(=O)[C@H](CC(=O)O)NC(=O)[C@H](CO)NC(=O)[C@@H](NC(=O)[C@H](Cc1ccccc1)NC(=O)[C@@H](NC(=O)CNC(=O)[C@@H]1CCCN1)[C@@H](C)O)[C@@H](C)CC)C(=O)N[C@@H](C)C(=O)N[C@@H](CCSC)C(=O)N[C@@H](CC(=O)O)C(=O)N[C@@H](CCCNC(=N)N)C(=O)N[C@H](C(=O)N[C@@H](CCCCNC(=O)COCCOCCNC(=O)COCCOCCNC(=O)CC[C@H](NC(=O)CCCCCCCCCCCCCCC(=O)O)C(=O)O)C(=O)N[C@@H](CCC(N)=O)C(=O)N[C@@H](CCC(N)=O)C(=O)N[C@@H](CC(=O)O)C(=O)N[C@@H](Cc1ccccc1)C(=O)N[C@H](C(=O)N[C@@H](CC(N)=O)C(=O)N[C@@H](Cc1c[nH]c2ccccc12)C(=O)N[C@@H](CC(C)C)C(=O)N[C@@H](CC(C)C)C(=O)N[C@@H](C)C(=O)N[C@@H](CCC(N)=O)C(=O)N[C@@H](CCCNC(=N)N)C(=O)O)C(C)C)[C@@H](C)CC [AT279] (H-PGTFISDYSIAMDRIK([AEEA-AEEA-γGlu-C16 diacid])QQDFVNWLLAQR-OH; N-terminus assumed)	17%	19 nM	81%		14%			
CC[C@H](C)[C@H](NC(=O)[C@H](CO)NC(=O)[C@H](Cc1ccc(O)cc1)NC(=O)[C@H](CC(=O)O)NC(=O)[C@H](CO)NC(=O)[C@@H](NC(=O)[C@H](Cc1ccccc1)NC(=O)[C@@H](NC(=O)CNC(=O)[C@@H](N)CCC(=O)O)[C@@H](C)O)[C@@H](C)CC)C(=O)N[C@@H](C)C(=O)N[C@@H](CCSC)C(=O)N[C@@H](CC(=O)O)C(=O)N[C@@H](CCCNC(=N)N)C(=O)N[C@H](C(=O)N[C@@H](CCCCNC(=O)COCCOCCNC(=O)CC[C@H](NC(=O)CCCCCCCCCCCCCCC(=O)O)C(=O)O)C(=O)N[C@@H](CCC(N)=O)C(=O)N[C@@H](CCC(N)=O)C(=O)N[C@@H](CC(=O)O)C(=O)N[C@@H](Cc1ccccc1)C(=O)N[C@H](C(=O)N[C@@H](CC(N)=O)C(=O)N[C@@H](Cc1c[nH]c2ccccc12)C(=O)N[C@@H](CC(C)C)C(=O)N[C@@H](CC(C)C)C(=O)N[C@@H](C)C(=O)N[C@@H](CCC(N)=O)C(=O)N[C@@H](CCCNC(=N)N)C(N)=O)C(C)C)[C@@H](C)CC [AT373] (HELM PEPTIDE1{E.G.T.F.I.S.D.Y.S.I.A.M.D.R.I.K.Q.Q.D.F.V.N.W.L.L.A.Q.R.[am]}|PEPTIDE2{[O=C(O)CCCCCCCCCCCCCCC(=O)[*:2]].[gGlu].[O=C(COCCOCCN[*:1])[*:2]]}$PEPTIDE1,PEPTIDE2,16:R3-3:R2$$$V2.0; N-terminus assumed)			91%	12.6 nM	0%	No Agonism	10 nM	94%
